According to article PMC8924211 (Nature Communications, 2022):
Numbering of substitutions follows the chain as printed.

Columns and labels:
Assay in all cases: Calcium assay, HEK293/Gα16 cells, GAL2R mutants
Type in all cases: cell-based
GAL2R mutants [1] = biological target: T1, GAL2R mutants (Homo sapiens, UniProt O43603, Y271A); conditions: GAL2R Y2717.32A
T1 construct: expressed in transfected cells; host or cells: HEK293
T1 sequence (O43603 1-387 Y271A): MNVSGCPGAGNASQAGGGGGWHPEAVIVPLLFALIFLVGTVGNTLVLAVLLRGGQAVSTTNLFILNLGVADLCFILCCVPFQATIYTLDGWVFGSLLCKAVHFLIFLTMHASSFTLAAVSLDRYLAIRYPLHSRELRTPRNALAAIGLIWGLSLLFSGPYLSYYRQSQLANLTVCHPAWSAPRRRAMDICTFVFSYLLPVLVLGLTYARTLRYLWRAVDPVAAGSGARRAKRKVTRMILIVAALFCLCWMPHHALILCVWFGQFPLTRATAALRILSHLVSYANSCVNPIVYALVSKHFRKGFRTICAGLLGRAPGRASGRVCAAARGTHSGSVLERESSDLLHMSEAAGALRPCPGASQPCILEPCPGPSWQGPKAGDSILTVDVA

GAL2R mutants [2] = biological target: T2, GAL2R mutants (Homo sapiens, UniProt O43603, L169A); conditions: GAL2R L169ECL2A
T2 construct: expressed in transfected cells; host or cells: HEK293
T2 sequence (O43603 1-387 L169A): T1 sequence (O43603 1-387 Y271A) with L169A, A271Y

GAL2R mutants [3] = biological target: T3, GAL2R mutants (Homo sapiens, UniProt O43603, H102A); conditions: GAL2R H1023.29A
T3 construct: expressed in transfected cells; host or cells: HEK293
T3 sequence (O43603 1-387 H102A): T1 sequence (O43603 1-387 Y271A) with H102A, A271Y

GAL2R mutants [4] = biological target: T4, GAL2R mutants (Homo sapiens, UniProt O43603, V259A); conditions: GAL2R V2596.58A
T4 construct: expressed in transfected cells; host or cells: HEK293
T4 sequence (O43603 1-387 V259A): T1 sequence (O43603 1-387 Y271A) with V259A, A271Y

GAL2R mutants [5] = biological target: T5, GAL2R mutants (Homo sapiens, UniProt O43603, L172A); conditions: GAL2R L172ECL2A
T5 construct: expressed in transfected cells; host or cells: HEK293
T5 sequence (O43603 1-387 L172A): T1 sequence (O43603 1-387 Y271A) with L172A, A271Y

[6] = response of 100 μM spexin compared to WT, mean ± S.E.M.

- Emax (GAL2R mutants [1]; [6]): 22.23±2.2%
- EC50 (GAL2R mutants [1]; spexin, replicate 1): 5.958 µM
- Emax (GAL2R mutants [1]; spexin, replicate 1): 23.9745%
- EC50 (GAL2R mutants [1]; spexin, replicate 2): 1.581 µM
- Emax (GAL2R mutants [1]; spexin, replicate 2): 17.9395%
- EC50 (GAL2R mutants [1]; spexin, replicate 3): 0.7518 µM
- Emax (GAL2R mutants [1]; spexin, replicate 3): 24.7776%
- Emax (GAL2R mutants [2]; [6]): 94.58±11.1%
- EC50 (GAL2R mutants [2]; spexin, replicate 1): 7.173 µM
- Emax (GAL2R mutants [2]; spexin, replicate 1): 77.1819%
- EC50 (GAL2R mutants [2]; spexin, replicate 2): 5.137 µM
- Emax (GAL2R mutants [2]; spexin, replicate 2): 91.205%
- Emax (GAL2R mutants [2]; spexin, replicate 3): 115.35%
- Emax (GAL2R mutants [3]; spexin, replicate 1): no response
- Emax (GAL2R mutants [3]; spexin, replicate 2): no response
- Emax (GAL2R mutants [3]; spexin, replicate 3): no response
- Emax (GAL2R mutants [4]; [6]): 68.4±5.7%
- EC50 (GAL2R mutants [4]; spexin, replicate 1): 1.328 µM
- Emax (GAL2R mutants [4]; spexin, replicate 1): 60.401%
- EC50 (GAL2R mutants [4]; spexin, replicate 2): 6.622 µM
- Emax (GAL2R mutants [4]; spexin, replicate 2): 65.4165%
- EC50 (GAL2R mutants [4]; spexin, replicate 3): 6.153 µM
- Emax (GAL2R mutants [4]; spexin, replicate 3): 79.3756%
- Emax (GAL2R mutants [5]; [6]): 33.56±1.2%
- EC50 (GAL2R mutants [5]; spexin, replicate 1): 3.125 µM
- Emax (GAL2R mutants [5]; spexin, replicate 1): 31.8616%
- EC50 (GAL2R mutants [5]; spexin, replicate 2): 10.79 µM
- Emax (GAL2R mutants [5]; spexin, replicate 2): 33.0538%
- EC50 (GAL2R mutants [5]; spexin, replicate 3): 12.08 µM
- Emax (GAL2R mutants [5]; spexin, replicate 3): 35.752%
Substance: spexin
- Emax (GAL2R mutants [3]; response of 100 μM spexin compared to WT): NR (NR, no response, refers to response < 10% compared to WT receptor (spexin at 100 μM))
